Data from PubChem BioAssay (NCI).
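Method: 48-hour compound exposure of cells in 96-well plates, five concentrations, linear interpolation of endpoints. TGI: total growth inhibition.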

Experiments:
Test in all cases: NCI tumour cell line growth inhibition, 48 h
[1] = test system: SN12K1 renal
[2] = test system: M19-MEL melanoma
[3] = test system: SNB-78 CNS
[4] = test system: P388/ADR leukemia
[5] = test system: P388 leukemia
[6] = test system: RXF-631 renal

Cc1ccc(C2COc3cc(O)c(O)cc3C2)cc1 (stereo not given)
TGI [1]: 75 µM | TGI [2]: 66.1 µM | TGI [3]: 221 µM | TGI [4]: 750 µM | TGI [5]: 750 µM

COc1cc(C(=O)CC2OC(=O)C(Cl)=C2Cl)ccc1Cl (stereo not given)
TGI [2]: > 100 µM | TGI [3]: > 100 µM | TGI [6]: > 100 µM

O=C(c1ccccc1)c1nc2ccc(Cl)cc2c2c1CCCO2
TGI [2]: > 100 µM | TGI [3]: > 100 µM

Clc1ccc(C[P+]2(c3ccccc3)CCCCC2)cc1
TGI [2]: > 100 µM | TGI [3]: > 100 µM

OCc1cc2ccncc2c2c1[nH]c1ccccc12
TGI [3]: 63.1 µM

CN=C(N)c1ccc(N=C(N)c2ccc(C(N)=Nc3ccc(C(N)=NC)cc3)cc2)cc1
TGI [2]: > 100 µM | TGI [6]: > 100 µM
